Data reported in patent US20240217990A1 (Gilead Sciences, Inc., priority 2021, published 2024).

How the values were obtained:
TLR8 = target: T1, TLR8 (Homo sapiens, UniProt Q9NR97); assay: TLR8 human PBMC cell-based assay (antagonist, Compound A stimulated cytokine release); settings: human PBMCs; TLR8 agonist Compound A 800 nM, 6 hours; cytokines (TNFa and IL 12p40) in supernatant; read-out: TLR-8 EC50
T1 construct: Human peripheral blood mononuclear cells (PBMCs) consist of lymphocytes, monocytes and dendritic cells that express TLR7, TLR8 and TLR9; endogenous in cells; host or cells: cryopreserved human PBMCs from healthy donors
T1 sequence (Q9NR97 27-1041): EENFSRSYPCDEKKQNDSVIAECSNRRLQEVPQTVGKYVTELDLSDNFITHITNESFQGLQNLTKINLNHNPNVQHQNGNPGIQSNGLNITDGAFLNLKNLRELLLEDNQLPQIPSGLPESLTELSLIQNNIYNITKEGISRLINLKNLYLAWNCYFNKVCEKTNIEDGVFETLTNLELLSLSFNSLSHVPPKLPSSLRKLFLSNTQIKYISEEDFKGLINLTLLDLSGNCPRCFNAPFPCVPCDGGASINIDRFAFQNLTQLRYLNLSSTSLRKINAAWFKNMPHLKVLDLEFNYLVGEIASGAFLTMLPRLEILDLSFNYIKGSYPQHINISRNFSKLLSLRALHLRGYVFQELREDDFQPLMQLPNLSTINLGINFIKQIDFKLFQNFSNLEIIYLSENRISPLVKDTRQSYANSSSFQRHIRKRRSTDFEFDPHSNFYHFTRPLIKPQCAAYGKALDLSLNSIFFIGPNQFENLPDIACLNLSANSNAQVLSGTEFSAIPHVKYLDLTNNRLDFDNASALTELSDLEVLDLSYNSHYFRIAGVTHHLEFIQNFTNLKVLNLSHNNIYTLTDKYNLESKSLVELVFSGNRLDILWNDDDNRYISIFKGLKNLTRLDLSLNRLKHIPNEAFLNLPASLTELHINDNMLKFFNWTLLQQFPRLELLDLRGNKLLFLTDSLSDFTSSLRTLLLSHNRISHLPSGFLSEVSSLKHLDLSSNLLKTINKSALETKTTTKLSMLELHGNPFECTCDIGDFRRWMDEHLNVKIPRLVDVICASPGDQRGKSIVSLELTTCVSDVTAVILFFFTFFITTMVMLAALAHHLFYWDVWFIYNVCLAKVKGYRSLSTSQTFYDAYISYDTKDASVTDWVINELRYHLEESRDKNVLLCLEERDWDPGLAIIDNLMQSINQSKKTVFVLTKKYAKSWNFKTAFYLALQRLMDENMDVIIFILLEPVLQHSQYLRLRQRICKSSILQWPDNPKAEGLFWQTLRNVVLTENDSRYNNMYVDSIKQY
Outline: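 Cryopreserved donor PBMCs (100,000/well, RPMI + 10% FBS) were preincubated 1 h with antagonist (10-point dose response, quadruplicate), then stimulated with Compound A (800 nM final) for 6 h at 37 °C. TNFa and IL-12p40 in supernatants were measured by electrochemiluminescence; sigmoidal fits gave EC50.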

TLR7 = target: T2, TLR7 (Homo sapiens, UniProt Q9NYK1); assay: TLR7 human PBMC cell-based assay (antagonist, GS-986 stimulated cytokine release); settings: human PBMCs; TLR7 agonist GS-986 400 nM, 6 hours; cytokines (IL-6 and IFNα) in supernatant; read-out: TLR-7 EC50
T2 construct: Human peripheral blood mononuclear cells (PBMCs) consist of lymphocytes, monocytes and dendritic cells that express TLR7, TLR8 and TLR9; endogenous in cells; host or cells: cryopreserved human PBMCs from healthy donors
T2 sequence (Q9NYK1 27-1049): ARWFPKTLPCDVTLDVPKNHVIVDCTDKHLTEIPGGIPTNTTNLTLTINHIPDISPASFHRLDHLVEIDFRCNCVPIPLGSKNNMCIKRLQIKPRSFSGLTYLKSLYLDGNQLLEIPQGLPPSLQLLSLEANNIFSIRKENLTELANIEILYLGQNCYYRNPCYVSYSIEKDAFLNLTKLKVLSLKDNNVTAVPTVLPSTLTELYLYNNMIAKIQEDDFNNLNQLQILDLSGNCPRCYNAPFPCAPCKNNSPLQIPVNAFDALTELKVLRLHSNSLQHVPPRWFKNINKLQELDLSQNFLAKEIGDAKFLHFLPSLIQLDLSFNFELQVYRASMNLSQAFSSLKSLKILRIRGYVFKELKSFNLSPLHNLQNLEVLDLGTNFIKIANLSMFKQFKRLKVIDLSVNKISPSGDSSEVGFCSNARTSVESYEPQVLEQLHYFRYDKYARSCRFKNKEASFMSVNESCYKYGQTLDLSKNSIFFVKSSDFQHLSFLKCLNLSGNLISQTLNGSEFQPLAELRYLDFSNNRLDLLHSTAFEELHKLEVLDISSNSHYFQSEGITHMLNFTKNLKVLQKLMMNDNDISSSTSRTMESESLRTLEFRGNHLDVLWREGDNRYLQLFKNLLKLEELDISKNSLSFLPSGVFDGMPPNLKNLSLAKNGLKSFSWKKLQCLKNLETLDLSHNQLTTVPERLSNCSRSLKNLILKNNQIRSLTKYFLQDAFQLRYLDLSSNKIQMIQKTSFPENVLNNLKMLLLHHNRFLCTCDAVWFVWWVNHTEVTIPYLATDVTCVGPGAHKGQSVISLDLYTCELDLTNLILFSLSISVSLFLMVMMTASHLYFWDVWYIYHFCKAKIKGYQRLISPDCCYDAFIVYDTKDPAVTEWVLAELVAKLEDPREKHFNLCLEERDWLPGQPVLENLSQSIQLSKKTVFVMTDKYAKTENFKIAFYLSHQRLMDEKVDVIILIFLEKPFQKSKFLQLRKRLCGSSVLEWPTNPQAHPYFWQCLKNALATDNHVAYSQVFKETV
Outline: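 Cryopreserved healthy-donor PBMCs (100,000/well, RPMI-1640 + 10% FBS) pre-incubated 1 h at 37 °C with antagonist (10-point dose response, quadruplicate), then stimulated 6 h with GS-986 at 400 nM final. Supernatant IL-6 and IFNα measured by electrochemiluminescence immunoassay; EC50 from sigmoidal fit.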

Structure (SMILES) | EC50 (TLR8) [nM] | EC50 (TLR7) [nM]
Cc1cc(-c2[nH]c3cc(C(=O)N4CCNC[C@H]4C)sc3c2C(C)C)cn2ncnc12 [Example 148] | 11 | 4.8
Cc1cc(-c2[nH]c3cc(-c4ccc5c(c4)CC(N)C5)sc3c2C(C)C)cn2ncnc12 (stereo not shown) [Example 227] | 0.7 | 0.6
Cc1c(-c2[nH]c3cc(CN4CCC(O)(C(F)(F)F)CC4)sc3c2C(C)C)cn2ncnc2c1C [Example 267] | 4.8 | 37.5
Cc1cc(-c2[nH]c3cc(C(=O)N4CCC[C@H](N)[C@@H]4C)sc3c2C(C)C)cn2ncnc12 [Example 87] | 13 | 0.5
COc1cc(-c2[nH]c3cc(-c4cnc5c(c4)CNCC5)sc3c2C(C)C)cn2ncnc12 [Example 224] | 0.3 | 0.4
Cc1cc(-c2[nH]c3cc(C(=O)N4CC[C@@H](N(C)C)C4)sc3c2C(C)C)cn2ncnc12 [Example 144] | 1.1 | 5.4
Cc1cc(-c2[nH]c3cc(C(=O)N(C)[C@H]4CNC[C@@H](C(F)(F)F)C4)sc3c2C(C)C)cn2ncnc12 [Example 275] | 35.6 | 9
Cc1c(-c2[nH]c3cc(-c4nc5ccc(N6CCNCC6)cc5[nH]4)sc3c2C(C)C)cn2ncnc2c1C [Example 239] | 25.4 | 6.6
Cc1cc(-c2[nH]c3cc(C(=O)N4CCC5(CCNCC5)C4)sc3c2C(C)C)cn2ncnc12 [Example 120] | 19.4 | 13
Cc1cc(-c2[nH]c3cc(C4=NC5(CCNCC5)CO4)sc3c2C(C)C)cn2ncnc12 [Example 50, 2-(6-isopropyl-5-(8-methyl-[1,2,4]triazolo[1,5-a]pyridin-6-yl)-4H-thieno[3,2-b]pyrrol-2-yl)-3-oxa-1,8-diazaspiro[4.5]dec-1-ene] | 4.6 | 0.2
Cc1cc(-c2[nH]c3cc(C(=O)N4CCC[C@@H](N)C4)sc3c2C(C)C)cc(C)n1 [Example 12] | 66.6 | 42.2
Cc1c(-c2[nH]c3cc(C(=O)N(C)C4CCN(CCO)CC4)sc3c2C(C)C)cn2ncnc2c1C [Example 192] | 0.5 | 1.2
CC(C)c1c(-c2ccc3ncnn3c2)[nH]c2cc(C(=O)N3CCNCC3)sc12 [Example 66] | 16.1 | 25.7
Cc1cc(-c2[nH]c3cc(C(=O)N4CC[C@H](N)C4)sc3c2C(C)C)cc(C)n1 [Example 7] | 35 | 110
Cc1cc(-c2[nH]c3cc(C(=O)N4C[C@H](N)C[C@H](C(F)(F)F)C4)sc3c2C(C)C)cn2ncnc12 [Example 59] | 15.4 | 24.1
Cc1cc(-c2[nH]c3cc(C(=O)N(CCN(C)C)C4CCCC4)sc3c2C(C)C)cn2ncnc12 [Example 98] | 17.5 | 14.3
Cc1cc(-c2[nH]c3cc(-c4cccc(N5CCNCC5)c4)sc3c2C(C)C)cn2ncnc12 [Example 234] | 8.4 | 8.1
Cc1cc(-c2[nH]c3cc(C(=O)N(C)[C@@H]4CCN(C5CCC5)C[C@@H]4F)sc3c2C(C)C)cn2ncnc12 [Example 83] | 17.7 | 17.8
CCc1c(-c2cc(C)c3ncnn3c2)[nH]c2cc(-c3nc(N4CCNCC4)no3)sc12 [Example 47] | 2.1 | 0.6
Cc1c(-c2[nH]c3cc(CN4CCC(C)(O)CC4)sc3c2C(C)C)cn2ncnc2c1C [Example 266] | 1.2 | 2.3

The next lines start with the values.

EC50 (TLR8) [nM] | EC50 (TLR7) [nM] | Structure (SMILES)
2 | 0.3 | Cc1cc(-c2[nH]c3cc(C4CCC(N5CC6(COC6)C5)CC4)sc3c2C(C)C)cn2ncnc12 (stereo not shown) [Example 260]
3.46 | 0.28 | Cc1cc(-c2[nH]c3cc(C4CC5(CCNCC5)C4)sc3c2C(C)C)cn2ncnc12 [Example 308]
7.51 | 2.89 | Cc1cc(-c2[nH]c3cc(C4CCC5(CCN(CC(N)=O)C5)C4)sc3c2C(C)C)cn2ncnc12 (stereo not shown) [Example 280]
6 | 13.5 | Cc1cc(-c2[nH]c3cc(-c4cnn(C5CCN(CC(N)=O)CC5)c4)sc3c2C(C)C)cn2ncnc12 [Example 172]
9 | 0.5 | Cc1cc(-c2[nH]c3cc(C4CCN(C(=O)[C@H]5CCN(C)C5)CC4)sc3c2C(C)C)cn2ncnc12 [Example 205]
3.8 | 0.1 | Cc1cc(-c2[nH]c3cc(-c4nc(C5CCNCC5)no4)sc3c2C(C)C)cn2ncnc12 [Example 46, 5-(6-isopropyl-5-(8-methyl-[1,2,4]triazolo[1,5-a]pyridin-6-yl)-4H-thieno[3,2-b]pyrrol-2-yl)-3-(piperidin-4-yl)-1,2,4-oxadiazole]
4.48 | 0.87 | Cc1cc(-c2[nH]c3cc(C4CCC5CNCCC5C4)sc3c2C(C)C)cn2ncnc12 (stereo not shown) [Example 281]
31.7 | 0.3 | Cc1cc(-c2[nH]c3cc(C4CCC5CNCC5C4)sc3c2C(C)C)cn2ncnc12 (stereo not shown) [Example 157]
3.1 | 0.4 | Cc1cc(N2CCNCC2)ncc1-c1cc2[nH]c(-c3cc(C)c4ncnn4c3)c(C(C)C)c2s1 [Example 216]
32.4 | 17.5 | Cc1cc(-c2[nH]c3cc(C(=O)N(C)C4CCN(CCC#N)CC4)sc3c2C(C)C)cn2ncnc12 [Example 183]
0.6 | 1.6 | Cc1cc(-c2[nH]c3cc(C4CCN(CCO)CC4)sc3c2C(C)C)cn2ncnc12 [Example 187, 2-(4-(6-isopropyl-5-(8-methyl-[1,2,4]triazolo[1,5-a]pyridin-6-yl)-4H-thieno[3,2-b]pyrrol-2-yl)piperidin-1-yl)ethan-1-ol]
12.3 | 18.2 | Cc1cc(CN2CCC(c3cc4[nH]c(-c5cc(C)c6ncnn6c5)c(C(C)C)c4s3)CC2)no1 [Example 193]
8.7 | 0.2 | Cc1cc(-c2[nH]c3cc(C4CCC5(CC4)CN(C(=O)CN(C)C)C5)sc3c2C(C)C)cn2ncnc12 [Example 185]
2.8 | 0.6 | Cc1cc(-c2[nH]c3cc(C(=O)N4CCC[C@H]5NCC[C@H]54)sc3c2C(C)C)cn2ncnc12 [Example 108]
40.2 | 8.8 | Cc1cc(-c2[nH]c3cc(C(=O)N(C)C4CCN(CC#N)CC4)sc3c2C(C)C)cn2ncnc12 [Example 182]
